{"source": "paper PMC5346980", "about": "(ACS Medicinal Chemistry Letters, 2017)", "key": {"[1]": {"biological_target": "purified Hb (a mixture of HbA and HbS) (Homo sapiens, UniProt P69905)", "sequence (P69905 2-142 limits assumed)": "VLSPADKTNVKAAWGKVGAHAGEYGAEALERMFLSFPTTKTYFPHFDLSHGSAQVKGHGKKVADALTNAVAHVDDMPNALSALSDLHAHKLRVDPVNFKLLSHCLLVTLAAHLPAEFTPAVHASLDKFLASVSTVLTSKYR", "assay": "Hemoximetry oxygen equilibrium curves", "type": "biochemical", "conditions": "des-formyl compound lacking the aldehyde"}, "Purified Hb": {"biological_target": "Purified Hb (Homo sapiens, UniProt P69905)", "sequence (P69905 2-142 limits assumed)": "as above", "assay": "Time dependence of hemoglobin-oxygen affinity", "type": "biochemical", "conditions": "Purified Hb 25 µM, 37 °C"}, "[2]": {"conditions": "rats; cited from earlier work"}, "CYP2C19": {"biological_target": "CYP2C19 (Homo sapiens, UniProt P33261)", "sequence (P33261 whole entry)": "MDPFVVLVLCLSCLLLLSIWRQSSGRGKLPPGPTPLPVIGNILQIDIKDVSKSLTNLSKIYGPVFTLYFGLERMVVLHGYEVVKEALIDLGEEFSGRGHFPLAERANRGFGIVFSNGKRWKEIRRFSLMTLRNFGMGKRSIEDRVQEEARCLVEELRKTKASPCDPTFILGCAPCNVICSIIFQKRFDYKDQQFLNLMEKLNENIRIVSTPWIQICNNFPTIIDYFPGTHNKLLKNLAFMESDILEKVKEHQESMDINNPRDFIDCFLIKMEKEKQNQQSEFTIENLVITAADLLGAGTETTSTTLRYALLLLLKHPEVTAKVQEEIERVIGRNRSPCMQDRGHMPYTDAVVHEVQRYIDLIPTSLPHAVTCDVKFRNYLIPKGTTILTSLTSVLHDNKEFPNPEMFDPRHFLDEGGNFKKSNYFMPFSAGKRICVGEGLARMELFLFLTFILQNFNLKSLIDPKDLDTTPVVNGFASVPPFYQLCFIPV", "assay": "Time-dependent CYP inhibition", "type": "in vitro ADME"}, "CYP3A4": {"biological_target": "CYP3A4 (Homo sapiens, UniProt P08684)", "sequence (P08684 whole entry)": "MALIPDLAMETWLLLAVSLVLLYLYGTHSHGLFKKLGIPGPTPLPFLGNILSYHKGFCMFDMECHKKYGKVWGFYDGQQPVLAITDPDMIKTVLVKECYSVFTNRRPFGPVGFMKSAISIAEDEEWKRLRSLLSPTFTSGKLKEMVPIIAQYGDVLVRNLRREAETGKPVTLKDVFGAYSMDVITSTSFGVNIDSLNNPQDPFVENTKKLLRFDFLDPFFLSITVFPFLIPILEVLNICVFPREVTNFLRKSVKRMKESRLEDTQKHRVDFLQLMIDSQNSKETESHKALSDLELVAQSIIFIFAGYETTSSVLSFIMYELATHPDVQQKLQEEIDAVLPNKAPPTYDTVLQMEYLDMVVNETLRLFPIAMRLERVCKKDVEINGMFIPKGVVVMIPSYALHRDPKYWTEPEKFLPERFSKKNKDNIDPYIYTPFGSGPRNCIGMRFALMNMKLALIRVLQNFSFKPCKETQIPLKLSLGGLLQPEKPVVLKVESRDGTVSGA", "assay": "Time-dependent CYP inhibition", "type": "in vitro ADME"}, "BCRP": {"biological_target": "T1, BCRP (Homo sapiens, UniProt Q9UNQ0)", "T1 sequence (Q9UNQ0 1-655)": "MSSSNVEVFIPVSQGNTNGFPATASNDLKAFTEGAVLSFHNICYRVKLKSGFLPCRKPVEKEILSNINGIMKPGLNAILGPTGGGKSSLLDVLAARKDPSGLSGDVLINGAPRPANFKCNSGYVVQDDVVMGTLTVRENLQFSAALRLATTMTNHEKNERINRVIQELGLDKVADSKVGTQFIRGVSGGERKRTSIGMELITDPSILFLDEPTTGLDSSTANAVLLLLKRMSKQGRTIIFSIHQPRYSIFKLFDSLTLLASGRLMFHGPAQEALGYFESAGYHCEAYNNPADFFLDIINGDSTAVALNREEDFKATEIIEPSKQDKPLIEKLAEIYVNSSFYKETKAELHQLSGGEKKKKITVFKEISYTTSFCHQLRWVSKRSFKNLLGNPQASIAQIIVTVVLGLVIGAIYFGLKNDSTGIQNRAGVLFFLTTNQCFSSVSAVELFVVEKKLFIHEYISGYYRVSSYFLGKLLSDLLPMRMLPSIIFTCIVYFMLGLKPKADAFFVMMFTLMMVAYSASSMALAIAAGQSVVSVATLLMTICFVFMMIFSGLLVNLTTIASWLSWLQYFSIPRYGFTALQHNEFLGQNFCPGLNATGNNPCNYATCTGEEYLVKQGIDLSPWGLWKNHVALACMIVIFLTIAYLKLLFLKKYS", "assay": "Transporter substrate assessment", "type": "in vitro ADME"}, "[3]": {"conditions": "monkeys; cited from earlier work"}, "[4]": {"conditions": "dogs; cited from earlier work"}, "P-gp": {"biological_target": "P-gp (Homo sapiens, UniProt P08183)", "sequence (P08183 whole entry)": "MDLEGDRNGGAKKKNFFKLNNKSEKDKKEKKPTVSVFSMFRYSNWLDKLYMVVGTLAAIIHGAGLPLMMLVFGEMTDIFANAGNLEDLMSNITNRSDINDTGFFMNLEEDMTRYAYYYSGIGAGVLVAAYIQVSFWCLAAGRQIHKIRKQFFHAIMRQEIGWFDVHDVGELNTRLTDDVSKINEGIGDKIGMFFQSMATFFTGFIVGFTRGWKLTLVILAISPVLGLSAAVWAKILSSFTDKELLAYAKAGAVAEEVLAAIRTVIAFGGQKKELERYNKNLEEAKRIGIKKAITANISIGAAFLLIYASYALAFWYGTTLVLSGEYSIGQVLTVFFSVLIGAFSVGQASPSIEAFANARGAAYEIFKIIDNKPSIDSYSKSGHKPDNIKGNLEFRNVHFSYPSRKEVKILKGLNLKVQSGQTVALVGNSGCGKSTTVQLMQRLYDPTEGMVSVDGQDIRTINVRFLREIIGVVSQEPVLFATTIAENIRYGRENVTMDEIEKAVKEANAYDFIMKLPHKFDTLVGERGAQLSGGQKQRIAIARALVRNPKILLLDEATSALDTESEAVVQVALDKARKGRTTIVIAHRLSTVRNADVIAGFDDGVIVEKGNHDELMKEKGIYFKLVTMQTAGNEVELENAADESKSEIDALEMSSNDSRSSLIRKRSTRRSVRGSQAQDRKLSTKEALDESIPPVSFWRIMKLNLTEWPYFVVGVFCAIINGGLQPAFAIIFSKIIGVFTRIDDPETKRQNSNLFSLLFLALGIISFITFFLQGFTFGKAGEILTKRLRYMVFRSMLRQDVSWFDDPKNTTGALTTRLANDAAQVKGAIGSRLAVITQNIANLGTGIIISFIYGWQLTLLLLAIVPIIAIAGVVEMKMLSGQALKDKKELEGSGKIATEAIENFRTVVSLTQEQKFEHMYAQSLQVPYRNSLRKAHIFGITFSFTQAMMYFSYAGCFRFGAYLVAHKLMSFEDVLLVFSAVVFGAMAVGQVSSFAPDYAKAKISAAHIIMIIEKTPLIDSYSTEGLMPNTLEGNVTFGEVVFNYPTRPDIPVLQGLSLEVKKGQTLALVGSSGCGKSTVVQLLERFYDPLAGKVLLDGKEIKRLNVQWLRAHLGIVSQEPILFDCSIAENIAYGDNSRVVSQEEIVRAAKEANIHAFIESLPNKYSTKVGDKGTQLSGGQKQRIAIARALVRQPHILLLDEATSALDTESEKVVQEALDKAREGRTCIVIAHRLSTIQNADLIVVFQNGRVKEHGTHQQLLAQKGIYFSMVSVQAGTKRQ", "assay": "Transporter substrate assessment", "type": "in vitro ADME"}}, "note": "Read-outs that look alike come from different tables or passages of the source."}
{"smiles": "COc1ccc(OCc2cccnc2-c2ccnn2C(C)C)cn1", "note": "[Compound 46]", "values": [{"measurement": "activity as Hb allosteric modulator (result in words)", "setting": "[1]", "value": "inactive"}]}
{"smiles": "O=Cc1ccc(CO)o1", "note": "[Compound 1, 5-hydroxymethylfurfural]", "values": [{"measurement": "time to maximum effect on Hb oxygenation (surrogate for on-rate)", "setting": "Purified Hb; compound 5 mM", "value": "~1", "unit": "h"}]}
{"smiles": "COc1ccc(OCc2cccnc2)c(C=O)c1", "note": "[Compound 4]", "values": [{"measurement": "time to maximum effect on Hb oxygenation (surrogate for on-rate)", "setting": "Purified Hb; compound 100 µM", "value": "~1", "unit": "h"}]}
{"smiles": "CC(C)n1nccc1-c1ncccc1COc1cccc(O)c1C=O", "note": "[Compound 36]", "values": [{"measurement": "blood and plasma half-lives", "setting": "[2]", "value": "approximately 20 h"}, {"measurement": "time-dependent inhibition", "setting": "CYP2C19", "value": "no significant time-dependent inhibition"}, {"measurement": "time-dependent inhibition", "setting": "CYP3A4", "value": "no significant time-dependent inhibition"}, {"measurement": "substrate for BCRP transporter", "setting": "BCRP", "value": "not a substrate"}, {"measurement": "blood and plasma half-lives", "setting": "[3]", "value": "approximately 20 h"}, {"measurement": "blood and plasma half-lives", "setting": "[4]", "value": "approximately 20 h"}, {"measurement": "substrate for P-gp transporter", "setting": "P-gp", "value": "not a substrate"}]}
